Results published in patent US20260242362A1, “PREPARATION OF 3,4,5-TRISUBSTITUTED TRIAZOLES AND METHODS OF USING THE SAME” (University of Florida Research Foundation, Incorporated, priority 2023, published 2026).
Read-outs that look alike come from different tables or passages of the source.

Assays:
[1] = molecular target: T1, kappa opioid receptor (Homo sapiens, UniProt P41145); assay: PathHunter DiscoverX β-arrestin2 recruitment (enzyme fragment complementation) assay; format: cell-based; details: for EC50: 3 parameter nonlinear regression, nc = did not converge; for β-arrestin2 Emax (% U60): relative to U69,593 = 100% Emax, ~ did not plateau at 100%; for β-arrestin2 maximum stimulation observed at 10 μM (starred Emax cells / % max at 10 uM): * compounds that did not reach plateau
Target sequence in this assay (P41145 whole entry, the tested form may be a part): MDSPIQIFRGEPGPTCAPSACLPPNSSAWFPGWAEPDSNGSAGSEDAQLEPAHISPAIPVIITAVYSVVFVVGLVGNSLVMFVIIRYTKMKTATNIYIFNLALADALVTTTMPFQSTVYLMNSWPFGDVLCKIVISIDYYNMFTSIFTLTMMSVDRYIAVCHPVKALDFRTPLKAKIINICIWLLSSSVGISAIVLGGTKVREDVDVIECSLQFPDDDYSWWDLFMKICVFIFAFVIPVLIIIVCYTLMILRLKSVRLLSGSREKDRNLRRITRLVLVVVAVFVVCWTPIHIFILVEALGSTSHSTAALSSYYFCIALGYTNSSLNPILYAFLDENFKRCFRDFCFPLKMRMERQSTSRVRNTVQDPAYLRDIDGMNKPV
Target sequence in this assay (P32121 whole entry partner, the tested form may be a part): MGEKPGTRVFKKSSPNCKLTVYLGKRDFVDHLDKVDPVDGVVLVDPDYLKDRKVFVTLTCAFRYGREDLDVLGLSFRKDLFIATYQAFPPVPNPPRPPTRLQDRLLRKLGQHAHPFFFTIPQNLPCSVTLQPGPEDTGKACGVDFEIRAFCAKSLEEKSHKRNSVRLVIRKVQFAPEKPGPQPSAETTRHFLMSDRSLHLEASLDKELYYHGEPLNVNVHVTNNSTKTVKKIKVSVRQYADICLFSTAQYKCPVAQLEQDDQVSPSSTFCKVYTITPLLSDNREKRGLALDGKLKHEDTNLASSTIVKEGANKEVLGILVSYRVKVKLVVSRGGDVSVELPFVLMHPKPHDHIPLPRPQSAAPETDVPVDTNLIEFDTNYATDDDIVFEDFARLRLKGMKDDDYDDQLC

[2] = molecular target: T1, kappa opioid receptor; assay: Bias analysis by operational model, G protein vs βarrestin2, U69,593 as reference agonist; details: U69,593 reference agonist; global parameter fitting
Target sequence in this assay (P41145 whole entry, the tested form may be a part): as the sequence (P41145 whole entry, the tested form may be a part) above

[3] = mouse, microsomes
Protocol: (§2) Microsomal stability was determined using mouse hepatic microsomes and LC/MS detections over time (Zhou et al., 2013, 22).

[4] = molecular target: T1, kappa opioid receptor; assay: GTPγS binding assay (G-protein activation); format: biochemical; details: for EC50: 3 parameter nonlinear regression, nc = did not converge; for GTPγS Emax (% U60): relative to U69,593 = 100% Emax; for GTPγS maximum stimulation observed at 10 μM (starred Emax cells): * compounds that did not reach plateau
Target sequence in this assay (P41145 whole entry, the tested form may be a part): as above

[5] = Microsomal stability, LC/MS detection over time; details: mouse hepatic microsomes
Protocol: as §2

[6] = tested on: adult male C57BL6/J mice; details: mouse, in vivo
[7] = molecular target: T2, δ-opioid receptor (Homo sapiens, UniProt P41143); assay: Radioligand binding displacement (Psychoactive Drug Screening Program); details: initial profiling
T2 construct: Psychoactive Drug Screening Program (UNC-CH)
T2 sequence (P41143 whole entry): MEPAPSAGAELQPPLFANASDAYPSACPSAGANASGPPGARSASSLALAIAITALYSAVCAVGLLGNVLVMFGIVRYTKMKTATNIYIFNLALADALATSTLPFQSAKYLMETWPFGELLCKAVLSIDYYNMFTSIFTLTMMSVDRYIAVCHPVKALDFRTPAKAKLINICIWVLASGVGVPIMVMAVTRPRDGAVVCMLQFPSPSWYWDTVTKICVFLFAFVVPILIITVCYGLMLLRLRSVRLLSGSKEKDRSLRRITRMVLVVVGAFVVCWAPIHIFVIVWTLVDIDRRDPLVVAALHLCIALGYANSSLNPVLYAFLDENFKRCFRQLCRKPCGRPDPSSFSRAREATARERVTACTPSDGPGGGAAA
Text: (§1) In some embodiments, the compounds disclosed herein are selective KOR binding ligands. As used herein, the term “selective binding ligands” refers to compounds, which display an increased selectivity for binding a particular KOR when compared to inhibiting other opioid receptors (such as μ- and δ-opioid receptors).

[8] = molecular target: T3, μ-opioid receptor (Homo sapiens, UniProt P35372); assay: as above; details: initial profiling
T3 construct: Psychoactive Drug Screening Program (UNC-CH)
T3 sequence (P35372 whole entry): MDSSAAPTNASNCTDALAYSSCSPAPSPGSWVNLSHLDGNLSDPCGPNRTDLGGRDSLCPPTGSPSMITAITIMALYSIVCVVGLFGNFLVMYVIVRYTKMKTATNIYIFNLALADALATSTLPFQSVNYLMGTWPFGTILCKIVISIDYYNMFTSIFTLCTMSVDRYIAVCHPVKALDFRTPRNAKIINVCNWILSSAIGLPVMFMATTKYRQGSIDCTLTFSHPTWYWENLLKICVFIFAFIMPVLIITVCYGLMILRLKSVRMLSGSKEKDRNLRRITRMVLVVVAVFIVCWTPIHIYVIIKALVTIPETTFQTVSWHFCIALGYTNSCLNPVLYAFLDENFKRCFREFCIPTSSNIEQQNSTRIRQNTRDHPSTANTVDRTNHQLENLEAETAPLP
Text: as §1

[9] = tested on: adult male C57BL6/J mice; assay: Open field test box mouse model for sedation; details: 60 minutes

Row | SMILES | EC50 ([1]; read-out: β-arrestin2 EC50) [nM] | β-arrestin2 Emax (% U60) [1] [% U60] | Microsomal Stability [3] [min] | EC50 [4] [µM] | GTPγS Emax (% U60) [4] [% U60] | β-arrestin2 maximum stimulation observed at 10 μM (starred Emax cells / % max at 10 uM) [1] | also measured
1 | Cc1ccc(/C=C/c2nnc(-c3ccccn3)n2Cc2ccco2)cc1C(F)(F)F (single isomer, unassigned) [Compound 40] | 7200 | 54 | 18 | 1.6 | 97 |  | Bias (bias factor 10^ΔΔ(logτ/KA) Gprotein-Barr2) [2]: 5; KOR potency / activity in words (SAR commentary) [4]: loss in potency
2 | Cc1ccc(/C=C/c2nnc(-c3ccccn3)n2Cc2ccco2)cc1C(F)(F)F [42 (UNC9008)] | 51300 | 119 |  | 1.6 | 96.5 |  | Bias (bias factor 10^ΔΔ(logτ/KA) Gprotein-Barr2) [2]: 3.5
3 | Cc1ccc(/C=C/c2nnc(-c3ccccn3)n2Cc2cccs2)cc1C(F)(F)F [49 (UNC9009)] | 20600 |  |  | 0.667 | 83.2 | 36.4 (% max at 10 uM) % U60 | Bias (bias factor 10^ΔΔ(logτ/KA) Gprotein-Barr2) [2]: 6.7
4 | Cc1ccc(CCc2nnc(-c3ccccn3)n2Cc2ccco2)cc1C(F)(F)F [Compound 2] |  | 119 |  |  | 90 |  | EC50 ([1]; β-arrestin2 EC50 (nM)): 788 nM; Microsomal Stability ([5]; Table 1, head prints no unit (b175 gives min)): 0.9; Microsomal Stability [5]: 0.9 min
5 | Cc1ccc(CCc2nnc(-c3ccccn3)n2Cc2cccs2)cc1C(F)(F)F [Compound 5] | 624 | 110 |  |  |  |  | sedation in open field test activity monitor [6]: does not induce sedation; displacement of radioligand binding to δ-opioid receptor [7]: less than 50%; displacement of radioligand binding to μ-opioid receptor [8]: less than 50%
6 | Clc1ccc(CCc2nnc(-c3ccccn3)n2Cc2cccs2)cc1Cl [Compound 32] |  |  |  |  |  |  | Microsomal Stability [5]: 1.5 min
7 | Clc1ccc(CCc2nnc(-c3ccccn3)n2Cc2cccs2)c(Cl)c1 [Compound 33] |  | 154 |  |  | 91 |  | Microsomal Stability [5]: 2.1 min
8 | C(=C/c1nnc(-c2ccccn2)n1Cc1ccco1)/c1ccccc1 [Compound 39] |  |  | 12.6 | 1.79 |  | 19* % U60 | 
9 | OC(Cc1ccccc1)c1nnc(-c2ccccn2)n1Cc1ccco1 (centres unmarked) [Compound 41] |  |  | 17.4 |  |  | 0* % U60 | KOR potency / activity in words (SAR commentary) [4]: loss in potency; GTPγS maximum stimulation observed at 10 μM (starred Emax cells) [4]: 22* % U60
10 | O=C(Cc1ccccc1)c1nnc(-c2ccccn2)n1Cc1ccco1 [Compound 42] |  | 2 | 8.1 |  |  |  | metabolic stability in words [3]: increased metabolic stability; KOR potency / activity in words (SAR commentary) [4]: loss in potency; GTPγS maximum stimulation observed at 10 μM (starred Emax cells) [4]: 4* % U60
11 | FC(Cc1ccccc1)c1nnc(-c2ccccn2)n1Cc1ccco1 (centres unmarked) [Compound 43] | > 10000 |  | 9.1 | 3.83 |  | 7* % U60 | 
12 | FC(Cc1nnc(-c2ccccn2)n1Cc1cccs1)c1ccccc1 (centres unmarked) [Compound 46] | > 10000 |  | 69.7 | 1.06 |  | 64* % U60 | 
13 | Cc1ccc(/C=C/c2nnc(-c3ccccn3)n2Cc2cccs2)cc1C(F)(F)F [Compound 47] |  |  | 22.0 |  | 83 | 36* % U60 | KOR potency / activity in words (SAR commentary) [4]: completely inactive
14 | Cc1ccc(/C=C/c2nnc(-c3ccccn3)n2Cc2nccs2)cc1C(F)(F)F [Compound 48] |  |  | 19.1 | 0.767 | 82 | 51* % U60 | 
15 | Cc1ccc(/C=C/c2nnc(-c3nccn3C)n2Cc2ccco2)cc1C(F)(F)F [Compound 49] |  |  | 14.1 |  | 76 | 17* % U60 | 
16 | Cc1ccc(/C=C/c2nnc(-c3nccn3C)n2Cc2cccs2)cc1C(F)(F)F [Compound 50] | 55800 |  | 12.2 | 1.01 | 77 | 38* % U60 | 
17 | Cc1ccc(/C=C/c2nnc(-c3nccn3C)n2Cc2nccs2)cc1C(F)(F)F [Compound 51] | 1680 | 34 | 14.5 | 0.309 |  |  | 
18 | Clc1ccc(CCc2nnc(-c3ccccn3)n2Cc2ccco2)cc1 [Compound 52] | 4530 | 191 | 3.3 | 0.099 | 84 |  | 
19 | Cn1ccnc1-c1nnc(CCc2ccc(Cl)cc2)n1Cc1nccs1 [Compound 53] | 5020 | 81 | 2.4 | 2.25 | 94 |  | 
20 | Cc1ccc(CCc2nnc(-c3nccn3C)n2Cc2ccco2)cc1C(F)(F)F [Compound 54] | 788 | 112 | 1.6 | 0.069 | 92 |  | Emax (weak partial agonist) ([1]; text b193, assay not named): about 26%
21 | Cc1ccc(CCc2nnc(-c3nccn3C)n2Cc2cccs2)cc1C(F)(F)F [Compound 56] | 888 | 98 |  | 0.095 | 105 |  | Bias (bias factor 10^ΔΔ(logτ/KA) Gprotein-Barr2) [2]: 12
22 | Cc1ccc(CN(Cc2ccco2)C(=O)c2ccccn2)cc1C(F)(F)F [Compound 57] | 3130 | 87 | 1.8 | 0.368 | 92 |  | 
23 | Cc1ccc(CCN(CCc2ccco2)C(=O)c2ccccn2)cc1C(F)(F)F [Compound 61] | > 10000 |  | 0.9 | 1.54 | 78 | 41* % U60 | 
24 | Cc1ccc(CCCN(CCCc2ccco2)C(=O)c2ccccn2)cc1C(F)(F)F [Compound 64] | > 10000 |  | 1.0 | 3.06 | 88 | 26* % U60 | 
25 | Cc1ccc(CSc2nnc(-c3ccccn3)n2Cc2ccco2)cc1C(F)(F)F [Triazole 1.1] |  |  |  |  |  |  | sedation in open field test activity monitor [9]: does not induce sedation; time spent in the center of the open field box [9]: did not effect center time; Microsomal Stability [5]: 1.1 min
